Assay results reported in patent publication US5922719A, “Coumarin dopamine D4 receptor antagonists” (priority 1997, dated 1999).
Structures can show the parent of a compound that is named as a salt. Where two headings read alike, the source gives them in different places.

Key:
[1] = target: T1, human recombinant dopamine D4.2 receptor (Homo sapiens, UniProt P21917, DEL265-296); experiment: [3H]spiperone receptor binding assay, D4.2 (CHO K1 membranes); details: [3H]spiperone 0.2 nM, human D4.2, CHO K1 membranes, 60 minutes at 25° C.
T1 construct: expressed in transfected cells
T1 sequence (P21917 with tags, fused parts or gaps DEL265-296): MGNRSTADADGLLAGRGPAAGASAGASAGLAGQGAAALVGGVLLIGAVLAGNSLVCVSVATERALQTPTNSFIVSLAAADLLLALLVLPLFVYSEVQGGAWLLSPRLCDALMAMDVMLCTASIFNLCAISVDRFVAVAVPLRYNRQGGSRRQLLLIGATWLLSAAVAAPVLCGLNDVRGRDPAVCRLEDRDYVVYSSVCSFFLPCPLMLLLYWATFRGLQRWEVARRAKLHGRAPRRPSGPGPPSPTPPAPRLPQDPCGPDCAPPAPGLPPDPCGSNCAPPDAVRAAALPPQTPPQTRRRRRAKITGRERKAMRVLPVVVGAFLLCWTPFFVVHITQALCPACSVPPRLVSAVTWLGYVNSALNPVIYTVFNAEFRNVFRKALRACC
Text: (§1) A cell line expressing human dopamine D2 (Long form) receptors was purchased from Oregon Health Sciences University, Portland, Ore. The D2 receptor cDNA was subcloned into an expression vector, pRc/CMV. The plasmids were transfected by electroporation into CHO K1 cells. A single stable transfectant, resistant to the antibiotic G418, was isolated and selected for use in the binding studies. For D4 binding, CHO K1 cells stably transfected to express the human recombinant dopamine D4.2 receptor subtype, as described by Shih, et al., "The expression and functional characterization of human dopamine D4.2 receptor in CHO K1 cells," Soc.
(§2) Cells were grown until confluent, after which growth medium was removed and replaced with 0.02% ethylene diamine tetracetate (EDTA) in a phosphate-buffered saline solution (Sigma Chemical Co; St. Louis, Mo.) and scraped from the flasks. The cells were centrifuged at about 1000×g for 10 minutes at 40° C. and then resuspended in TEM buffer (25 mM Tris-HCL, pH 7.4, 5 mM EDTA, and 6 mM MgCl2) for D2 or the D4.2 buffer (50 mM Tris-HCl, pH 7.4, 5 mM EDTA, 1.5 mM CaCl2, 5 mM KCl, and 120 mM NaCl) and homogenized. The membranes were pelleted by centrifugation at 20,000×g at 40° C. for 20 minutes. Then the pellets were resuspended in an appropriate buffer at 1 mL/flask and stored at -70° C. until used in the receptor binding assay.
After 60 minutes incubation at 25° C., the incubations were terminated by rapid filtration through Whatmann GF/B glass fibre filters (soaked for 1 hour in 0.5% polyethylenimine) on a -cell harvester, with three washes of 1 mL ice-cold buffer. […] Nonspecific binding was defined in presence of 1 mM of haloperidol.
(§3) Saturation and competition binding data were analyzed using an iterative nonlinear least-square curve-fitting Ligand program. […] Experimental compounds were made up as stock solutions in dimethyl sulfoxide (DMSO). […] Each observation was carried out in triplicate. To allow these calculations, Kd values were measured for the interaction of various ligands with the receptor. […]

[2] = target: human dopamine D2 (Long form) receptor (Homo sapiens, UniProt P14416); experiment: [3H]spiperone receptor binding assay, D2 (Long form) (CHO K1 membranes); details: [3H]spiperone 0.2 nM, human D2 (Long form), CHO K1 membranes, 60 minutes at 25° C.; read-out: D2 Ki
Sequence of human dopamine D2 (Long form) receptor (P14416 whole entry): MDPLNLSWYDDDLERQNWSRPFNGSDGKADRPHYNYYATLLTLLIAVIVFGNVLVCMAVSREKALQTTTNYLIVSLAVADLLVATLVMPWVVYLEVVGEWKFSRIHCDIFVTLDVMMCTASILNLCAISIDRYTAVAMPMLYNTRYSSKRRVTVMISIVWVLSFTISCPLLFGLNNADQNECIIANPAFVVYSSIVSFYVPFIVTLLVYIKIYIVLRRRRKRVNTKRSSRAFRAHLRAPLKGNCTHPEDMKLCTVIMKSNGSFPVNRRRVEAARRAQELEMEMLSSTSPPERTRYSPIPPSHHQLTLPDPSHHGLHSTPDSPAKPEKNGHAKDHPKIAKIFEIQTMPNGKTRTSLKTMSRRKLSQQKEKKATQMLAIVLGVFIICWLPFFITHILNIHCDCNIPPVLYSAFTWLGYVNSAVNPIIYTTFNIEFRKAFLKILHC
Text: as §1, with “Soc. Neurosci., 1995;21(Part 1):621.” for “Soc.”
as §2, with “CHO K1 cells expressing either human D2 and D4.2 receptors were grown in 162 cm^2 culture flasks in F12 medium (Gibco Laboratories, Grand Island, N.Y.) supplemented with 10% fetal bovine serum (FBS, Hyclone, Logan, UT) in an atmosphere of 5% Co2 /95% air at 37° C. Cells” for “Cells”
After 60 minutes incubation at 25° C., the incubations were terminated by rapid filtration through Whatmann GF/B glass fibre filters (soaked for 1 hour in 0.5% polyethylenimine) on a -cell harvester, with three washes of 1 mL ice-cold buffer. Individual filter disks containing the bound ligand were placed in counting vials with 4 mL of scintillation fluid (Ready Gel, Beckman Instrument Inc, Fullerton, Calif.) and then counted in a Beckman LS-6800 liquid scintillation counter at an efficiency of 45%. Nonspecific binding was defined in presence of 1 mM of haloperidol.
as §3

| SMILES | Ki ([1]; D4 Ki) | Ki [2] | Ki ([1]; read-out: D4 Ki) |
| --- | --- | --- | --- |
| O=c1ccc2ccc(CN3CCN(c4ccccc4)CC3)cc2o1 [Example 13, 7-(4-Phenyl-piperazin-1-ylmethyl)-chromen-2-one] | 26 nM | 5340 nM |  |
| O=c1ccc2cc(CN3CCN(c4ccc(CO)c(Cl)c4)CC3)ccc2o1 [Example 38, 6-[4-(3-Chloro-4-hydroxymethyl-phenyl)-piperazin-1-ylmethyl]-chromen-2-one] |  | 7290 nM | 13 nM |
| O=c1ccc2cc(CN3CCN(c4ccccc4Cl)CC3)ccc2o1 [Example 43, 6-[4-(2-Chloro-phenyl)-piperazin-1-ylmethyl]-chromen-2-one] |  | 218 nM | 28 nM |
| O=c1ccc2cc(CN3CCN(c4cccc(Cl)c4)CC3)ccc2o1 [Example 41, 6-[4-(3-Chloro-phenyl)-piperazin-1-ylmethyl]-chromen-2-one] |  | 3320 nM | 19.4 nM |
| Cc1ccc(N2CCN(Cc3ccc4ccc(=O)oc4c3)CC2)cc1C [Example 3, 7-[4-(3,4-Dimethyl-phenyl)-piperazin-1-ylmethyl]-chromen-2-one] | 13.9 nM | 433 nM |  |
| Cc1cccc(N2CCN(Cc3ccc4ccc(=O)oc4c3)CC2)c1 [Example 17, 7-(4-m-Tolyl-piperazin-1-ylmethyl)-chromen-2-one] | 32 nM | 4400 nM |  |
| O=c1ccc2ccc(CN3CCN(c4ccccc4F)CC3)cc2o1 [Example 18, 7-[4-(2-Fluoro-phenyl)-piperazin-1-ylmethyl]-chromen-2-one] |  | 1000 nM | 33 nM |
| O=c1ccc2ccc(CN3CCN(c4ccccn4)CC3)cc2o1 [Example 25, 2H-1-Benzopyran-2-one, 7-[[4-(2-pyridinyl)-1-piperazinyl]methyl]-, dihydrochloride] |  | > 5880 nM | 68.2 nM |
| O=c1ccc2ccc(CN3CCN(c4cccc(C(F)(F)F)c4)CC3)cc2o1 [Example 10, 7-[4-(3-Trifluoromethyl-phenyl)-piperazin-1-ylmethyl]-chromen-2-one] |  | 5880 nM | 24 nM |
| O=c1ccc2ccc(CN3CCN(c4cccc(Cl)c4)CC3)cc2o1 [Example 9, 7-[4-(3-Chloro-phenyl)-piperazin-1-ylmethyl]-chromen-2-one] |  | > 10000 nM | 23 nM |
| O=c1ccc2ccc(CN3CCN(c4cccc([N+](=O)[O-])c4)CC3)cc2o1 [Example 14, 7-[4-(3-Nitro-phenyl)-piperazin-1-ylmethyl]-chromen-2-one] |  | 5880 nM | 26 nM |
| O=c1ccc2ccc(CN3CCN(c4cccc(Cl)c4Cl)CC3)cc2o1 [Example 21, 7-[4-(2,3-Dichloro-phenyl)-piperazin-1-ylmethyl]-chromen-2-one] |  | 1840 nM | 41.1 nM |
| O=c1ccc2ccc(CN3CCN(c4ccc(F)c(C(F)(F)F)c4)CC3)cc2o1 [Example 15, 7-[4-(4-Fluoro-3-trifluoromethyl-phenyl)-piperazin-1-ylmethyl]-chromen-2-one] |  | 7120 nM | 27.3 nM |
| O=c1ccc2cc(CN3CCN(c4cccc(Cl)c4Cl)CC3)ccc2o1 [Example 39, 6-[4-(2,3-Dichloro-phenyl)-piperazin-1-ylmethyl]-chromen-2-one] |  | 1200 nM | 15 nM |
| O=c1ccc2cc(CN3CCN(c4ccc(CO)c(Br)c4)CC3)ccc2o1 [Example 37, 6-[4-(3-Bromo-4-hydroxymethyl-phenyl)-piperazin-1-ylmethyl]-chromen-2-one] |  | 2980 nM | 12.6 nM |
| O=c1ccc2cc(CN3CCN(c4ccccn4)CC3)ccc2o1 [Example 44, 2H-1-Benzopyran-2-one, 6-[[4-(2-pyridinyl)-1-piperazinyl]methyl]-, dihydrochloride] |  | 2170 nM | 29.7 nM |
